Where “and” joins values, the source holds several entries; their conditions need not be identical. Identical values can stand only once.
Biological target: T1, human β3 receptors (Homo sapiens, UniProt P13945)
T1 construct: Full length β3 AR clones (402 amino acids) containing the last 6 amino acids of hβ3—AR; expressed in transfected cells; host or cells: CHO cells
Assay: cAMP response (SPA) in CHO cells expressing cloned human β3 adrenergic receptor
Assay type: cell-based
Conditions: for EC50: CHO cells expressing human β3 receptor, cAMP, 30 min incubation, 10^−9 M to 10^−5 M; for IA(β3): maximal response compared to the maximal response of isoproterenol at 10^−5 M
Method in brief: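 CHO cells transfected with cloned human β3-AR were incubated with compound at 37° C for 30 min, stopped with 0.2N HCl and neutralized. cAMP was measured by SPA. Activity is expressed as per cent of the maximal isoproterenol (10^−5 M) response.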

T1 sequence (P13945 whole entry): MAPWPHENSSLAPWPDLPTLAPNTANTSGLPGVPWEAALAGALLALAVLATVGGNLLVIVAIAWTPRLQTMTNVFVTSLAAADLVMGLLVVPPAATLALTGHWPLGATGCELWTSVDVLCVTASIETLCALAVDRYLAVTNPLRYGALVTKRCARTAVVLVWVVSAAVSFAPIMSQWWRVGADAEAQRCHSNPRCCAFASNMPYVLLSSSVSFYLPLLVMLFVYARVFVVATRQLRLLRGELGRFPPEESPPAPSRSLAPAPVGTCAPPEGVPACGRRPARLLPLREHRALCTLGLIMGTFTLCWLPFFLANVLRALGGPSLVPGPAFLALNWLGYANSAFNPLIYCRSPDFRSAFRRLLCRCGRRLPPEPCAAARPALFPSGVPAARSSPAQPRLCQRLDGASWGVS

EC50 | IA(β3) | Compound
40 nM | 0.85 | CC(C)(C)c1ccc(S(=O)(=O)N2CCC(CNC[C@H](O)c3ccc(O)c(NS(C)(=O)=O)c3)CC2)cc1 [Example 163, N-[5-((1R)-2-{[(1-{[4-(tert-butyl)phenyl]sulfonyl}piperidin-4-yl)-methyl]amino}-1-hydroxyethyl)-2-hydroxyphenyl]-methanesulfonamide]
940 nM | 0.72 | CCc1cc(Br)ccc1S(=O)(=O)N1CCC(CNC[C@H](O)c2ccc(O)c(NS(C)(=O)=O)c2)CC1 [Example 168, N-(5-((1R)-2-[({1-[(4-bromo-2-ethylphenyl)sulfonyl]piperidin-4-yl}-methyl)amino]-1-hydroxyethyl}-2-hydroxyphenyl)-methanesulfonamide]
388 nM and 380 nM | 1.34 and 1.15 | CS(=O)(=O)Nc1cc([C@@H](O)CNCC2CCN(S(=O)(=O)c3c(Cl)sc(Cl)c3Br)CC2)ccc1O [Example 173, N-(5-{(1R)-2-[({1-[(4-bromo-2,5-dichlorothien-3-yl)sulfonyl]-piperidin-4-yl}methyl)amino]-1-hydroxyethyl}-2-hydroxyphenyl)-methanesulfonamide]
1410 nM | 0.72 | CS(=O)(=O)Nc1cc([C@@H](O)CNCC2CCN(S(=O)(=O)c3ccc(CNC(=O)c4ccccc4)s3)CC2)ccc1O [Example 183, N-({5-[(4-{[((2R)-2-hydroxy-2-{4-hydroxy-3-[(methylsulfonyl)-amino]-phenyl}ethyl)amino]methyl}piperidin-1-yl)sulfonyl]thien-2-yl}methyl)benzamide]

The remaining lines, values behind:

Compound | EC50 | IA(β3)
O=c1[nH]c2cccc(OC[C@@H](O)CNCC3CCN(S(=O)(=O)c4ccc5ccccc5c4)CC3)c2[nH]1 [Example 157, 4-{[(2S)-2-hydroxy-3-({[1-(2-naphthylsulfonyl)piperidin-4-yl]methyl}amino)propyl]oxy}-1,3-dihydro-2H-benzimidazol-2-one] | 670 nM | 1
CC(C)(C)c1ccc(S(=O)(=O)N2CCC(CNC[C@H](O)COc3ccc(O)cc3)CC2)cc1 [Example 160, 4-[((2S)-3-{[(1-{[4-(tert-butyl)phenyl]sulfonyl}piperidin-4-yl)methyl]amino}-2-hydroxypropyl)oxy]phenol] | 346 nM | 0.85
CC(C)(C)c1ccc(S(=O)(=O)N2CCC(CNC[C@H](O)COc3cccc4[nH]c(=O)[nH]c34)CC2)cc1 [Example 162, 4-[((2S)-3-{[(1-{[4-(tert-butyl)phenyl]sulfonyl}piperidin-4-yl)methyl]-amino}-2-hydroxypropyl)oxy]-1,3-dihydro-2H-benzimidazol-2-one] | 11 nM and 35 nM | 0.64 and 0.94

— patent publication US6506901B2, “Substituted 2-(S)-hydroxy-3-(piperidin-4-yl-methylamino)-propyl ethers and substituted 2-aryl-2-(R)-hydroxy-1-(piperidin-4-yl-methyl)-ethylamine β-3 adrenergic receptor agonists” (Wyeth, priority 2000, dated 2003)
